In the supplement of paper PMC10307832:

What was measured:
Assay in all cases: relative viability (nuclei count vs DMSO), 5 days (fraction); higher = more cells survive
[1] = compound: CCn1c(-c2nonc2N)nc2cnc(Oc3cccc(NC(=O)c4ccc(OCCN5CCOCC5)cc4)c3)cc21 + Nc1nc2[nH]cc(CCc3ccc(C(=O)N[C@@H](CCC(=O)O)C(=O)O)cc3)c2c(=O)[nH]1 [Pemetrexed] (partner 0.2 µM)
How it was run: (§1)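 Lung cancer cell lines were seeded in 1536-well plates and dosed by pin tool the next day, with either a single drug or a fixed anchor-drug dose combined with five library-drug doses (not always all listed) spaced in √10 steps. Five days later, one step fixed the cells and stained their nuclei (final 0.05% Triton X-100, 1% formaldehyde, 1 ug/ml Hoechst), and nuclei were counted on 4× images. Relative viability is the nuclei count in treated wells divided by the count in vehicle wells, and each value is the median of duplicate plates.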

Mirin + Lapatinib = compound: N=C1NC(=O)/C(=C/c2ccc(O)cc2)S1 [Mirin] + CS(=O)(=O)CCNCc1ccc(-c2ccc3ncnc(Nc4ccc(OCc5cccc(F)c5)c(Cl)c4)c3c2)o1 [Lapatinib] (partner 2 µM)
How it was run: as §1

Mirin + Tozasertib = compound: N=C1NC(=O)/C(=C/c2ccc(O)cc2)S1 [Mirin] + Cc1cc(Nc2cc(N3CCN(C)CC3)nc(Sc3ccc(NC(=O)C4CC4)cc3)n2)n[nH]1 [Tozasertib] (partner 0.1 µM)
How it was run: as §1

Mirin + Bortezomib = compound: N=C1NC(=O)/C(=C/c2ccc(O)cc2)S1 [Mirin] + CC(C)C[C@H](NC(=O)[C@H](Cc1ccccc1)NC(=O)c1cnccn1)B(O)O [Bortezomib] (partner 0.002 µM)
How it was run: as §1

Cell Line | relative viability ([1]; first compound 0.04 µM) | relative viability ([1]; first compound 0.1265 µM) | relative viability ([1]; first compound 0.4 µM) | relative viability ([1]; first compound 1.265 µM) | relative viability ([1]; first compound 4 µM) | relative viability (Mirin + Lapatinib; first compound 0.25 µM) | relative viability (Mirin + Lapatinib; first compound 0.7906 µM) | relative viability (Mirin + Lapatinib; first compound 2.5 µM) | relative viability (Mirin + Lapatinib; first compound 7.906 µM) | relative viability (Mirin + Lapatinib; first compound 25 µM) | relative viability (Mirin + Tozasertib; first compound 0.25 µM) | relative viability (Mirin + Tozasertib; first compound 0.7906 µM) | relative viability (Mirin + Tozasertib; first compound 2.5 µM) | relative viability (Mirin + Tozasertib; first compound 7.906 µM) | relative viability (Mirin + Tozasertib; first compound 25 µM) | relative viability (Mirin + Bortezomib; first compound 0.25 µM) | relative viability (Mirin + Bortezomib; first compound 0.7906 µM) | relative viability (Mirin + Bortezomib; first compound 2.5 µM) | relative viability (Mirin + Bortezomib; first compound 7.906 µM) | relative viability (Mirin + Bortezomib; first compound 25 µM)
NCI-H2170 | 0.263 | 0.263 | 0.272 | 0.223 | 0.244 | 0.273 | 0.223 | 0.278 | 0.324 | 0.274 | 0.709 | 0.747 | 0.713 | 0.652 | 0.504 | – | – | – | – | –
HCC-366 | 0.166 | 0.173 | 0.131 | 0.0447 | 0.0523 | 1.06 | 0.957 | 1.07 | 0.986 | 0.752 | 0.15 | – | 0.602 | 0.0813 | 0.103 | 1.06 | 0.986 | 1.09 | 0.981 | 0.977
NCI-H2405 | 1.01 | 0.395 | 0.315 | 0.247 | 0.284 | 1.11 | 1.12 | 1.02 | 1.05 | 1.22 | 0.71 | 0.778 | 0.775 | 0.67 | 0.61 | 1.02 | 0.765 | 0.967 | 0.972 | 1.01
COR-L 105 | 1.13 | 0.965 | 1.09 | 0.615 | 0.507 | 0.346 | 0.274 | 0.392 | 0.367 | 0.306 | 0.341 | 0.384 | 0.343 | 0.401 | 0.309 | 0.866 | 0.759 | 0.903 | 0.992 | 0.769
201T | 0.356 | 0.347 | 0.343 | 0.263 | 0.303 | 0.98 | 0.964 | 1.01 | 1.09 | 1.08 | 0.929 | 0.982 | 0.88 | 0.881 | 0.599 | 1.12 | 1.12 | 1.2 | 1.18 | 1.23
NCI-H2228 | 0.328 | 0.289 | 0.302 | 0.285 | 0.333 | 0.88 | 1 | 1.51 | 1.12 | 0.921 | 0.267 | 0.197 | 0.235 | 0.203 | 0.176 | 0.983 | 1.04 | 1 | 0.919 | 1.2
LC-2-ad | 0.257 | 0.269 | 0.241 | 0.199 | 0.206 | 0.967 | 1.03 | 0.947 | 0.783 | 0.98 | 0.459 | 0.35 | 0.476 | 0.342 | 0.256 | 0.996 | 1.07 | 1.03 | 0.907 | 1.03
NCI-H2085 | 0.888 | 0.591 | 0.601 | 0.591 | 0.664 | 0.828 | 0.791 | 0.823 | 0.807 | 0.628 | 0.8 | 0.826 | 0.678 | 0.749 | 0.546 | 1.13 | 0.972 | 1.18 | 0.975 | 1.02
NCI-H358 | 0.176 | 0.169 | 0.19 | 0.178 | 0.151 | 0.466 | 0.514 | 0.489 | 0.52 | 0.379 | 0.11 | 0.0924 | 0.114 | 0.0872 | 0.106 | – | – | – | – | –
H3255 | 0.528 | 0.512 | 0.503 | 0.432 | 0.431 | 0.25 | 0.307 | 0.236 | 0.241 | 0.218 | 0.677 | 0.639 | 0.698 | 0.555 | 0.602 | 0.778 | 0.725 | 0.837 | 0.698 | 0.769
NCI-H23 | 0.864 | 0.74 | 0.442 | 0.532 | 0.431 | 1.17 | – | 1.13 | 0.936 | 0.742 | 0.496 | – | 0.427 | 0.288 | 0.256 | 1.3 | – | 1.15 | 0.842 | 0.817
CAL-12T | 1.81 | 1.38 | 1.39 | 1.04 | 0.996 | 0.702 | – | 0.92 | – | 0.238 | 0.282 | – | 0.317 | 0.283 | 0.222 | 0.921 | – | 0.967 | – | 1.43
A-427 | 0.876 | 0.708 | 0.529 | 0.228 | 0.318 | 1.12 | – | 1.17 | 1.05 | 1.08 | 0.196 | – | 0.202 | 0.143 | 0.158 | 0.97 | – | 1.01 | 1.03 | 1.02
HARA | 0.211 | 0.233 | 0.205 | 0.181 | 0.212 | 0.836 | 0.747 | 0.742 | 0.652 | 0.665 | 0.126 | – | 0.107 | 0.0865 | 0.0791 | 1.09 | 1.11 | 1.17 | 1.1 | 1.17
NCI-H1793 | 0.542 | 0.754 | 0.69 | 0.512 | 0.502 | 0.899 | 0.413 | 0.914 | 0.881 | 0.652 | 0.341 | – | 0.619 | 0.283 | 0.178 | – | – | – | – | –
NCI-H1623 | – | – | – | – | – | – | – | – | – | – | 0.448 | 0.429 | 0.423 | 0.436 | 0.377 | – | – | – | – | –
NCI-H2009 | 0.916 | 0.817 | 0.757 | 0.607 | 0.492 | 0.883 | 0.469 | 1.02 | 0.847 | 0.993 | 0.707 | 0.785 | 0.725 | 0.614 | 0.556 | 1 | 0.831 | 1.12 | 0.869 | 1.14
ABC-1 | – | – | – | – | – | 1.04 | 1.33 | 1.17 | 1.16 | 0.95 | 0.167 | 0.235 | 0.197 | 0.223 | 0.193 | 0.293 | 0.254 | 0.306 | 0.339 | 0.293
